Measurements taken from patent US10066208B2, “Kit and method for promoting mesenchymal stem cell differentiation” (priority 2014, dated 2018).

Tests used:
mesenchymal stem cell [1] = assay: Alcian Blue stain of mesenchymal stem cell condensation and glycosaminoglycan secretion, 2-dimensional plate culture; format: cell-based, Wistar rats; settings: 3 and 7 days, vs control without kartogenin
Text: The Isolation and Culture of the Mesenchymal Stem Cell • 1. The cell source was taken from the four limbs of two-week old Wistar rats. Rats were sacrificed and immersed in 75% alcohol. The operation process for taking four limbs was under half sterile environment. • 2. During the cellular collecting processes, sterilized equipments were used in the whole processes. Both tibia and femur of the lower limb were taken. The tip of the scissor was used to separate the bone and the muscle. The knee joints and the hip joints were taken down along the bones; the part near the ankle was difficult to remove completely, so a direct cut was made close to the ankle joints. Only the humerus in upper limb had enough amounts of cells, so just took humerus and the scapula was processed as ankle joints in having a direct cut. Finally the limbs were soaked and washed in phosphate buffer solution (PBS) with 10% antibiotics (penicillin 10,000/ml, streptomycin 10 mg/ml, amphotericin-B 0.025 mg/ml). • 3. The muscle on the limbs was clearly removed under solution, the protruding parts of the two ends were cut out and soaked into new PBS (containing 1% antibiotics). Cells were washed out by syringe filled with PBS. • 4. PBS containing cells was placed in centrifuge tubes and centrifugated at 2000 rpm for 5 minutes. The red blood cells were suspended cells which adhered to and flowed with the mesenchymal stem cell. […]

mesenchymal stem cell [2] = assay: Real-time PCR gene expression of mesenchymal stem cell, 2-dimensional plate culture; format: cell-based, Wistar rats
Text: The Isolation and Culture of the Mesenchymal Stem Cell • 1. The cell source was taken from the four limbs of two-week old Wistar rats. Rats were sacrificed and immersed in 75% alcohol. The operation process for taking four limbs was under half sterile environment. • 2. During the cellular collecting processes, sterilized equipments were used in the whole processes. Both tibia and femur of the lower limb were taken. The tip of the scissor was used to separate the bone and the muscle. The knee joints and the hip joints were taken down along the bones; the part near the ankle was difficult to remove completely, so a direct cut was made close to the ankle joints. Only the humerus in upper limb had enough amounts of cells, so just took humerus and the scapula was processed as ankle joints in having a direct cut. Finally the limbs were soaked and washed in phosphate buffer solution (PBS) with 10% antibiotics (penicillin 10,000/ml, streptomycin 10 mg/ml, amphotericin-B 0.025 mg/ml). • 3. The muscle on the limbs was clearly removed under solution, the protruding parts of the two ends were cut out and soaked into new PBS (containing 1% antibiotics). Cells were washed out by syringe filled with PBS. • 4. PBS containing cells was placed in centrifuge tubes and centrifugated at 2000 rpm for 5 minutes. The red blood cells were suspended cells which adhered to and flowed with the mesenchymal stem cell. The supernatant was carefully removed. • 5. Hank's Balanced Salt Solution (HBSS) was added into the centrifugated cells. After mixing up, 5 mL of HBSS mixed with cells was added into 5 mL of Ficoll separating solution and centrifugated at 18-20° C. at the speed 300 g for 40 minutes. • 6. After centrifugation, the supernatant was sucked out; large amount of PBS was added to dilute the Ficoll separating solution and washed for 2-3 times. • 7. Medium was added into the centrifugated cells and mixed up for culturing. Dulbecco's Modified Eagle Medium (DMEM) with 10% fetal bovine serum (FBS) was used for the stem cell medium in this example. • 8. After the cells attached, the medium was changed every 2-3 days. When the cells was fully confluent, subcultured as the proportion of one to three or one to four.
(§1) The gene expression of the mesenchymal stem cell was examined by Real-time PCR. The results were used for determining the medium formulation in the following scaffold culture and bioreactor culture. The primers used in the present invention were shown as the following table:
The cells cultured in DMEM with 10% FBS were used as the control group.

mesenchymal stem cell [3] = assay: Live and death staining (Calcein-AM/PI) of mesenchymal stem cell in tri-copolymer scaffold, static culture; format: cell-based, Wistar rats; settings: 1.0 kartogenin, 7 days, vs control group
Protocol: (§2) The mesenchymal stem cells used in the present invention were in the third generation of subculture to ensure the maintenance of the cell morphology. The proliferated stem cells were dissociated by trpsin, collected and condensed to 10^7 cells/mL. 50 μL of the cell solution was seeded on each dry scaffold. The cells were divided into static culture group and bioreactor culture group. The former changed the medium every 2 to 3 days and in the latter, after cells seeding into the scaffold and culturing for one day, it was moved into the bioreactor.
After the combination of the gelatin-hyaluronan-chondroitin tri-copolymer with the mesenchymal stem cell, the differentiating effects under the 3-dimensional culture were confirmed. Through the live and death staining, the cell condensation during early differentiation stage was examined at the presence of 1.0 kartogenin. […] Apoptosis was the process during chondrogenic differentiation of stem cell.
The fluorescent staining of Calcein-AM and Propidium Iodide (PI) was used to examine the survival distribution of the cells in the scaffold. The former was lipophilic which could easily enter into the living cell and being hydrolyzed to produce fluorescent compounds, calcein, so that only the living cell could be stained with Calcin-AM. […] When PI bound to a DNA double helix, it emitted red fluorescence. […]

mesenchymal stem cell [4] = assay: Real-time PCR gene expression of mesenchymal stem cell in tri-copolymer scaffold with kartogenin, bioreactor culture; format: cell-based, Wistar rats
Text: as §1, §2
After culturing the tri-copolymer material, the mesenchymal stem cell and kartogenin in the bioreactor for 7, 14 and 21 days, mRNA genes expression were examined. In this example, the control group was the mesenchymal stem cell culturing […].
After culturing in the bioreactor for 7, 14, and 21 days, mRNA gene expression was examined. In this example, the control group was the mesenchymal stem cell culturing on the 2-dimensional plate for 1 day.

mesenchymal stem cell [5] = assay: Hematoxylin/Eosin histological examination of cell-material complex sections, bioreactor culture; format: cell-based, Wistar rats; settings: tri-copolymer scaffold
Protocol: After combining the gelatin-hyaluronan-chondroitin tri-copolymer and the stem cell, the coculture construct was seeded and transferred into the dynamic bioreactor for culturing. The morphology of the differentiated cells were stained with Hematoxylin/Eosin, and in the present example, the cell-material complex sections were examined at 3 time points: Day 0, 7 and 21.

mesenchymal stem cell [6] = assay: Immunohistochemical staining of aggrecan and type II collagen, bioreactor culture; format: cell-based, Wistar rats; settings: tri-copolymer scaffold, kartogenin
Protocol: The aggrecan and the type II collagen were characteristic proteins of the cartilage cells. The coculture structure was cultured in the dynamic bioreactor and the expressions of the proteins were presented by immunohistochemical staining. The samples culturing under the dynamic culture environment for 7, 14, and 21 days were washed in PBS, immersed in 2.5% formaldehyde for 30 minutes for immobilization. The samples were paraffin-embedded and sectioned into 5 μm. The immunohistochemistry was used to examine the characteristic protein of the cartilage cells which comprises the aggrecan and the type II collagen. After dewaxing by xylene and rehydration, the activity of endogenous peroxidase was cleaned by Hydrogen Peroxide Block reagent (ab80436, abcam, MA, USA). After antigen was repaired, non-specific background protein was bound by Protein Block (ab80436). The primary antibodies (rabbit anti-collagen-II (ab53047), rabbit anti-aggrecan (GTX86902)) of type II collagen and aggrecan were reacted with the tissue slices at 4° C. for 12 hr. After rinsing, the slices were bound with horseradish peroxidase (HRP) conjugated secondary antibody (goat anti-rabbit HRP conjugate). […] Last, the hematoxylin was incubated with the slices at room temperature for 30 minutes for counterstain.
In the present example, the cell-material complex sections were examined at 3 time points: Day 0, 7 and 21. […]

mesenchymal stem cell [7] = assay: Safranin-O staining of glycosaminoglycans, bioreactor culture; format: cell-based, Wistar rats; settings: tri-copolymer scaffold, kartogenin, 21 days
Text: Glycosaminoglycans (GAGs) were mainly the content of the extracellular matrix secreted by the chondrocyte.
The cells were distributed on the tri-copolymer scaffold at the beginning of culture. Red was for Safranin-O staining. The Safranin-O staining of the background was from the chondroitin-6-sulfate of the material itself which was one of the Glycosaminoglycans. […] After the cell culturing for 21 days, the cell mass was examined, of which size was about 100 μm.

mesenchymal stem cell [8] = assay: DMMB quantification of glycosaminoglycans in the bioreactor medium; format: cell-based, Wistar rats; settings: tri-copolymer scaffold, kartogenin, day 7, 14 and 21
Protocol: 1,9-dimethylmethlene blue (DMMB) method was used for quantifying Glycosaminoglycans (GAGs). 16 mg of DMMB was dissolved in 5 mL of 95% ethanol and diluted with 3 mL of formic acid and 25.6 mL of NaOH. Double distilled water was used to adjust the final volume to 1 liter, and the solution was maintained at pH 3.5.
250 μL of the DMMB solutions were added into 40 μL of the diluted sample solutions which were from different time points. After reacted in the dark for 10 min, the absorbance of 520 nm was detected and then the GAGs concentration was determined by interpolated onto the standard curve calculated by the chondroitin-6-sulfate.
The GAGs concentrations in the medium were determined by the DMMB method through collecting samples from the bioreactor at different time points.

hMSC = settings: cited from earlier work
[9] = day 7, control MSC on 2-dimensional plate 1 day
[10] = day 14, control MSC on 2-dimensional plate 1 day
[11] = day 21, control MSC on 2-dimensional plate 1 day

O=C(O)c1ccccc1C(=O)Nc1ccc(-c2ccccc2)cc1 [kartogenin]
early condensation and secretion of glycosaminoglycans (Alcian Blue stain) (mesenchymal stem cell [1]; 0.1 μM kartogenin): promoted the condensation phenomenon
early condensation and secretion of glycosaminoglycans (Alcian Blue stain) (mesenchymal stem cell [1]; 1.0 μM kartogenin): promoted the condensation phenomenon
TIMPs expression compared to the control group (mesenchymal stem cell [2]; 0.1 μM kartogenin, day 14): 0.91±0.04 fold
Sox-9 gene expression relative to the control group (mesenchymal stem cell [2]; 1.0 μM kartogenin, 7 days): 1.66±0.27 fold
Aggrecan gene expression (mesenchymal stem cell [2]; 1.0 μM kartogenin, 7 days, higher than 0.1 μM group (p<0.001)): 3.99±0.63 fold
Aggrecan gene expression compared to the untreated group (mesenchymal stem cell [2]; 1.0 μM kartogenin, 14 days): 6.44±0.35 fold
Sox-9 gene expression (mesenchymal stem cell [2]; 1.0 μM kartogenin, day 3 and day 7): up-regulated
Sox-9 gene expression (mesenchymal stem cell [2]; 1.0 μM kartogenin, day 14): 0.56±0.04 fold
TIMPs expression compared to the control group (mesenchymal stem cell [2]; 1.0 μM kartogenin, day 14): 1.63±0.249 fold
cell condensation (live and death staining) (mesenchymal stem cell [3]): cell condensation was occurred
proportion of cell death (live and death staining) (mesenchymal stem cell [3]): higher
Aggrecan expression compared to the control group (mesenchymal stem cell [4]; day 7): 11.66±4.75 fold
Col2a1 gene expression compared to the control group (mesenchymal stem cell [4]; day 7): 13.6±4.7 fold
TIMPs expression (mesenchymal stem cell [4]; day 7): 5.60±1.24 fold
Sox-9 expression (mesenchymal stem cell [4]; day 7, control MSC cultured 1 day): 2.51±0.90 fold
Col1a1 expression compared to the control group (mesenchymal stem cell [4]; [9]): 13.19±2.90 fold
Col10a1 expression (mesenchymal stem cell [4]; [9]): 39.23±9.39 fold
Runx 2 expression compared to the control group (mesenchymal stem cell [4]; [9]): 8.60±3.55 fold
Aggrecan expression compared to the control group (mesenchymal stem cell [4]; day 14): 12.33±6.3 fold
Col2a1 gene expression compared to the control group (mesenchymal stem cell [4]; day 14): 28.26±11.64 fold
TIMPs expression (mesenchymal stem cell [4]; day 14): 5.79±5.25 fold
Sox-9 expression (mesenchymal stem cell [4]; day 14, control MSC cultured 1 day): 3.91±2.12 fold
Col1a1 expression compared to the control group (mesenchymal stem cell [4]; [10]): 17.26±1.38 fold
Col10a1 expression (mesenchymal stem cell [4]; [10]): 36.08±26.00 fold
Runx 2 expression compared to the control group (mesenchymal stem cell [4]; [10]): 9.89±3.82 fold
Aggrecan expression compared to the control group (mesenchymal stem cell [4]; day 21): 9.74±3.83 fold
Col2a1 gene expression compared to the control group (mesenchymal stem cell [4]; day 21): 40.32±9.13 fold
TIMPs expression (mesenchymal stem cell [4]; day 21): 3.94±1.08 fold
Sox-9 expression (mesenchymal stem cell [4]; day 21, control MSC cultured 1 day): 3.06±0.99 fold
Col1a1 expression compared to the control group (mesenchymal stem cell [4]; [11]): 13.14±6.07 fold
Col10a1 expression (mesenchymal stem cell [4]; [11]): 5.56±5.23 fold
Runx 2 expression compared to the control group (mesenchymal stem cell [4]; [11]): 7.35±1.96 fold
cell condensation (Hematoxylin/Eosin section) (mesenchymal stem cell [5]; kartogenin induction, day 7): cell condensation was presence
lacunae structure (Hematoxylin/Eosin section) (mesenchymal stem cell [5]; kartogenin, day 21): lacunae like structure was examined
size of the cell mass (Hematoxylin/Eosin section) (mesenchymal stem cell [5]; kartogenin, day 21): about 100 μm
type II collagen expression (immunohistochemical staining) (mesenchymal stem cell [6]; day 7 and 21, not distinct at day 0): positively stained
aggrecan expression (immunohistochemical DAB staining) (mesenchymal stem cell [6]; day 21 compared with day 7): higher expression of aggrecan
accumulation of GAGs (Safranin-O staining) (mesenchymal stem cell [7]): accumulation of the GAGs was examined on the surface of the cell mass
size of the cell mass (Safranin-O/Hochest staining) (mesenchymal stem cell [7]): about 100 μm
secretion of GAGs into the medium (DMMB method) (mesenchymal stem cell [8]): increased
EC50 (hMSC): 100 nM
